Experimental data as given in patent US20110104121A1, “Female Reproductive Tract and Anal Prophylaxes” (priority 2008, published 2011).

What was measured:
[1] = test system: Monocytes-derived Dendritic cells (MDDCs); assay: surface receptor expression on monocyte-derived dendritic cells, flow cytometry; type: cell-based, human
Description: Materials and Methods. Uterine epithelial cell line (ECC-1) was cultured according to established methods to establish cellular polarity with apical and basolateral compartments (Schaefer, et al. (2004) Immunology 112:428-436). The formation of tight junctions by the epithelial cell monolayer was routinely monitored by measurement of transepithelial resistance (TER) (Richardson, et al. (1995) Biol. Reprod. 53:488-498). […] The pooled media was centrifuged for 5 minutes at 10,000 g and stored at −80° C. for use in subsequent studies.
Peripheral blood mononuclear cells (PBMC) were obtained from residues of platelet pheresis according to known methods (Dietz, et al. (2006) Transfusion 46:2083-2089). Monocytes were subsequently enriched with Rosette Sep reagent (StemCell, Vancouver, BC). Blood specimens were from healthy adult males. Monocytes-derived Dendritic cells (MDDCs) were in vitro generated with GM-CSF (50 ng/ml) and IL-4 (50 ng/ml) (PeproTech Inc, Rocky Hill, N.J.) (Sallusto Lanzavecchia (1994) J. Exp. Med. 179:1109-1118). MDDCs were differentiated for 7 days in the presence or absence of 24-hour conditioned medium (1:1 dilution) obtained from ECC-1. In some experiments TGF-beta receptor 1 blocker, SB431542 (10 μM; Tocris Cookson, Inc., St. Louis, Mo.) (Eriksson, et al. (2006) Am. J. Reprod. Immunol. 56:321-328; Shen, et al. (2007) Clin. Exp. Immunol. 149(1):155-61) was simultaneously added with ECC-1 CM for the entire duration of the differentiation. As positive control for TGF-beta effects on MDDCs, experimental conditions were included in which MDDCs were differentiated with recombinant human TGF-beta1 at three different concentrations (0.1, 1 and 10 ng/mL) in the presence or absence of SB431542. Following 7 days of culture, cells were harvested, washed and subsequently used for flow cytometry analyses.
Following six days of in vitro differentiation, surface staining of MDDCs was performed with the following fluorochrome-labeled monoclonal antibodies: CD1a (HI149), CD14 (61D3), from Ebioscience (San Diego, Calif.); and CD163 (215927), CCR5 (45531), CXCR4 (12G5), DC-SIGN (120507) from R&D Systems (Minneapolis, Minn.). Matched isotype controls for the antibodies were used to control for non-specific binding. Following antibody staining, cells were washed with staining buffer and fixed with 2% methanol-free paraformaldehyde in 1×PBS (2% PFA), followed by analysis with a Becton Dickinson FACS CALIBUR (San Jose, Calif.). The acquired FACS data were analyzed by CELL QUEST (BD Biosciences).
Statistical analysis was performed using two-way analysis of variance (ANOVA) ([…] Prism Version 5.0; […] Software Inc., San Diego, Calif.). A value of P<0.05 was considered significant.

[2] = test system: uterine stromal fibroblasts; assay: HGF secretion by uterine stromal fibroblasts, ELISA; type: cell-based, human
Description: (§1) Materials and Methods. FRT mucosal tissue was obtained following surgery from women who underwent hysterectomies. Tissues used in this study were distal to the sites of pathology and were determined to be unaffected by disease upon inspection by a trained pathologist. Tissues were transported from Pathology and procedures to isolate stromal fibroblasts began within 2 hours of surgery.
Tissues from the Fallopian tube, uterus, cervix, and ectocervix were dispersed into epithelial and stromal cell fractions by enzymatic digestion (Fahey, et al. (1998) Immunol. Invest. 27:167-180; Meter, et al. (2005) Fertil. Steril. 84:191-201). Briefly, tissues were minced under sterile conditions into 1-2 mm fragments and then digested at 37° C. for 1 hour using a “PHC” enzyme mixture that contained final concentrations of 3.4 mg/ml pancreatin (Gibco Life Technologies, Rockville, Md.), 0.1 mg/ml hyaluronidase (Worthington Biochemical Corporation, Freehold, N.J.), 1.6 mg/ml collagenase (Worthington) and 2 mg/ml D-glucose (Sigma, St Louis, Mo.) in Hank's balanced salt solution (Gibco, Invitrogen). This procedure was chosen to maximize digestion of the extracellular matrix, as verified by microscopy and by hematoxylin and eosin staining of frozen sections after digestion, while minimizing digestion of cell surface antigens as determined by flow cytometry. After incubating in this enzyme cocktail, cells and tissue fragments were collected, washed with complete media consisting of DMEM/F-12 without phenol red (Gibco) supplemented with 10% heat-inactivated fetal calf serum (Hyclone, Logan, Utah), 2 mM fresh L-glutamine, 25 mM HEPES, […] primocin (InvivoGen, San Diego, Calif.) and separated from tissue aggregates by sedimentation for 5 minutes. Medium containing predominantly single cells and small epithelial cell glands were removed and dispersed through a 250 μm nylon mesh screen (Small Parts, Miami Lake, Fla.). […]
(§2) Stromal cell fractions were washed, resuspended in complete media, and cultured in T75 flasks. […] When confluent, the cells in the flask were counted and sub-cultured into 24 well culture plates (Fisher Scientific, Pittsburgh, Pa.). […]
Once the cells reached confluence, they were cultured in complete media with 10% stripped FBS (Hyclone). […] In related experiments, when cell proliferation was analyzed, harvested from culture wells and counted by Coulter Counter. […] Viability of the cultures was determined using trypan blue dye exclusion and manual counting of live vs. dead cells on a hemocytometer. […]

[3] = test system: cervix stromal fibroblasts; assay: HGF secretion by cervix stromal fibroblasts, ELISA; type: cell-based, human; settings: estradiol
Description: as §1
(§3) Tissues from the Fallopian tube, uterus, cervix, and ectocervix were dispersed into epithelial and stromal cell fractions by enzymatic digestion (Fahey, et al. (1998) Immunol. Invest. 27:167-180; Meter, et al. (2005) Fertil. Steril. 84:191-201). […] This procedure was chosen to maximize digestion of the extracellular matrix, as verified by microscopy and by hematoxylin and eosin staining of frozen sections after digestion, while minimizing digestion of cell surface antigens as determined by flow cytometry. […]
as §2
(§4) Once the cells reached confluence, they were cultured in complete media with 10% stripped FBS (Hyclone). […] In related experiments, when cell proliferation was analyzed, harvested from culture wells and counted by Coulter Counter. […]

[4] = test system: ectocervix stromal fibroblasts; assay: HGF secretion by ectocervix stromal fibroblasts, ELISA; type: cell-based, human; settings: estradiol
Description: as §1, §3, §2, §4

[5] = test system: primary uterine epithelial cells; assay: MIP3 alpha secretion by primary uterine epithelial cells, ELISA; type: cell-based, mice; settings: 20 hours, 37° C., vs media control
Description: FIG. 1 depicts levels of MIP3 alpha secretion by primary uterine epithelial cells at 20 hours after exposure to estrogen, ICI […] or the SERMs indicated. P value is comparison to media control.
Indeed, FIG. 1 summarizes the effects of estradiol (estrogen) and four known SERMS on the secretion of MIP3 alpha (aka CCL20), a known potent endogenous antimicrobial peptide, by primary uterine epithelial cells in culture. Epithelial cells were isolated from the uteri of intact mice by enzymatic digestion prior to incubation at 37° C. in the presence or absence of known SERMS for 20 hours. Following incubation in 96-well plates, media was collected and assayed by ELISA for MIP3 alpha.

[6] = test system: female macrophages; assay: LPS-induced TNFalpha secretion by female macrophages; type: cell-based
[7] = test system: uterine cells; assay: relative mRNA expression of SLPI and defensins in uterine cells; type: cell-based; settings: for relative uterine alpha defensin 2 expression: saline control ~0.2×10^5; for relative beta defensin 4 mRNA expression in uterine cells: saline control ~0.4×10^5
Description: (§5) The analysis of SERM activity is carried out using fresh hysterectomy tissues, wherein epithelial cells, neutrophils, NK cells and macrophage/dendritic cells (MAC/DC), which are known to be responsive in culture to sex hormones, are recovered. Using conventional assays, SERMs (e.g., Tamoxifen, bazedoxifene acetate, lasofoxifene and raloxifene, etc) are analyzed for their ability to regulate immunological endpoints which have been identified as optimal for protection against HIV. […] Similarly, ICI 182,780 increased relative vaginal SLPI mRNA levels by 26-fold over saline controls. Furthermore, ICI 182,780, tamoxifen, and Y134 increased relative uterine alpha defensin 2 expression (˜3×10^5, ˜4×10^5, and −1.2×10^6, respectively) compared to ˜0.2×10^5 in the saline control. ICI 182,780, Y134, and PHTPP were also found to increase relative vaginal alpha defensin 2 expression (˜2.4×10^5, ˜4×10^5, and ˜1.6×10^5, respectively) compared to −7.5×10^4 in the saline control.

[8] = test system: vaginal cells; assay: relative mRNA expression of SLPI and defensins in vaginal cells; type: cell-based; settings: for relative vaginal alpha defensin 2 expression: saline control printed −7.5×10^4; for relative mRNA expression of beta defensin 1 in vaginal cells: saline control ~1.1×10^8
Description: as §5

[9] = test system: primary uterine epithelial cells; assay: mouse KC (IL8) secretion from primary uterine epithelial cells; type: cell-based; settings: 24-hour treatment
[10] = test system: CCR5-tropic HIV; settings: in vitro; read-out: 50% inhibitory concentration, CCR5-tropic HIV infectivity; cited from earlier work
[11] = Table 4, control vehicle, N = 3
[12] = Table 5, control vehicle, N = 3

Molecule: C[C@]12CC[C@@H]3c4ccc(O)cc4CC[C@H]3[C@@H]1CC[C@@H]2O [E2, 17β-estradiol]
- DC-SIGN expression on immature DCs [1]: increases
- uterine stromal fibroblast HGF secretion ([2]; 10^−7 M or 10^−8 M estradiol, within 48 hours): significantly increased
- estradiol response of HGF at 24 hours, responding patients ([2]; 24 hours after addition of estradiol): two out of five patients
- cell numbers, control vs estradiol-treated wells ([2]; counted at 48-hour intervals): did not differ
- HGF secretion, six days vs two days of exposure ([2]; estradiol 2, 4, 6 days, CM collected at 48 hour intervals): three times more HGF
- HGF secretion by cervix stromal fibroblasts [3]: did not increase
- secretion of HGF from ectocervix stromal fibroblasts [4]: no effect
- MIP3 alpha secretion [5]: no effect
- TNFalpha (% of Control) ([6]; E2 0.001 nM, control no E2, N = 4): 98.35 ± 3.19 % of Control
- TNFalpha (% of Control) ([6]; E2 0.01 nM, control no E2, N = 4): 97.72 ± 6.89 % of Control
- TNFalpha (% of Control) ([6]; E2 0.1 nM, control no E2, N = 4): 94.68 ± 11.62 % of Control
- TNFalpha (% of Control) [6, 11]: 73.96 ± 3.00 % of Control
- TNFalpha (% of Control) [6, 12]: 73.96 ± 3.00 % of Control

Molecule: C[C@]12CC[C@@H]3c4ccc(O)cc4C[C@@H](CCCCCCCCC[S+]([O-])CCCC(F)(F)C(F)(F)F)[C@H]3[C@@H]1CC[C@@H]2O (stereo partly shown) [ICI 182,780]
- increase in relative uterine SLPI mRNA levels over saline controls [7]: ~3×10^5
- relative uterine alpha defensin 2 expression [7]: ~3×10^5
- increase in relative vaginal SLPI mRNA levels over saline controls [8]: 26 fold
- relative mRNA expression of beta defensin 2 in vaginal cells [8]: not significantly affected
- relative vaginal alpha defensin 2 expression [8]: ~2.4×10^5
- relative mRNA expression of beta defensin 1 in vaginal cells [8]: ~2.15×10^8
- MIP3 alpha secretion [5]: significantly increased
- secretion of mouse KC (IL8) [9]: significantly increased
- TNFalpha (% of Control) [6, 11]: 111.87 ± 15.68 % of Control

Molecule: CC/C(=C(\c1ccccc1)c1ccc(OCCN(C)C)cc1)c1ccccc1 [tamoxifen]
- increase in relative uterine SLPI mRNA levels over saline controls [7]: ~2.5×10^5
- relative uterine alpha defensin 2 expression [7]: ~4×10^5
- relative beta defensin 4 mRNA expression in uterine cells [7]: ~6×10^5
- relative mRNA expression of beta defensin 2 in vaginal cells [8]: not significantly affected
- relative beta defensin 4 mRNA expression in vaginal cells ([8]; saline control ~1×10^7): ~2.1×10^8
- relative mRNA expression of beta defensin 1 in vaginal cells [8]: ~1.75×10^8
- MIP3 alpha secretion [5]: marginal effect
- secretion of mouse KC (IL8) [9]: marginal effect

Molecule: Oc1ccc(-c2c(-c3ccccc3)nn3c(C(F)(F)F)cc(C(F)(F)F)nc23)cc1 [PHTPP]
- increase in relative uterine SLPI mRNA levels over saline controls [7]: ~8×10^5
- relative beta defensin 4 mRNA expression in uterine cells [7]: ~8×10^5
- relative mRNA expression of beta defensin 2 in uterine cells ([7]; saline control ~1×10^5): ~1.55×10^8
- relative mRNA expression of beta defensin 1 in uterine cells ([7]; saline control ~1.1×10^6): ~1.05×10^8
- relative mRNA expression of beta defensin 2 in vaginal cells [8]: not significantly affected
- relative vaginal alpha defensin 2 expression [8]: ~1.6×10^5
- MIP3 alpha secretion [5]: marginal effect
- secretion of mouse KC (IL8) [9]: marginal effect
- TNFalpha (% of Control) [6, 12]: 79.96 ± 6.43 % of Control

B1: Lactobacillus-derived CV-N: HIV inhibitor Cyanovirin-N produced by engineered vaginal Lactobacillus (protein, UniProt P81180 1-101, looked up)
Cyanovirin-N: LGKFSQTCYNSAIQGSVLTSTCERTNGGYNTSSIDLNSVIENVDGSLKWQPSNFIETCRNTQLAGSSELAAECKTRAQQFVSTKINLDDHIANIDGTLKYE
modifications: produced in engineered Lactobacillus
- IC50 [10]: 0.3 nM
